According to PubChem BioAssay (NCI):
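How tested: cells in 96-well plates exposed to compound for 48 hours at five concentrations. GI50: concentration for 50% inhibition of growth. TGI: total growth inhibition.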

Tests used:
Assay in all cases: inhibition of tumour cell growth, NCI panel, 48 h
MDA-MB-231 breast = system: MDA-MB-231 breast
EKVX NSCLC = system: EKVX NSCLC
HCT-15 colon = system: HCT-15 colon
OVCAR-4 ovarian = system: OVCAR-4 ovarian
PC-3 prostate = system: PC-3 prostate
A549 NSCLC = system: A549 NSCLC
KM12 colon = system: KM12 colon
OVCAR-5 ovarian = system: OVCAR-5 ovarian
786-0 renal = system: 786-0 renal
CAKI-1 renal = system: CAKI-1 renal

Row | Structure (SMILES) | GI50 (MDA-MB-231 breast) [µM] | TGI (MDA-MB-231 breast) [µM] | GI50 (EKVX NSCLC) [µM] | GI50 (HCT-15 colon) [µM] | TGI (HCT-15 colon) [µM] | GI50 (OVCAR-4 ovarian) [µM] | TGI (OVCAR-4 ovarian) [µM] | GI50 (PC-3 prostate) [µM] | TGI (PC-3 prostate) [µM] | GI50 (A549 NSCLC) [µM] | TGI (A549 NSCLC) [µM] | GI50 (KM12 colon) [µM] | TGI (KM12 colon) [µM] | GI50 (OVCAR-5 ovarian) [µM] | TGI (OVCAR-5 ovarian) [µM] | GI50 (786-0 renal) [µM] | TGI (786-0 renal) [µM] | TGI (EKVX NSCLC) [µM] | TGI (CAKI-1 renal) [µM] | GI50 (CAKI-1 renal) [µM]
1 | O=C(Nc1cnc(C(F)(F)F)cn1)c1cc(Cl)ccc1O | 0.27 | 0.946 | 0.228 | 0.307 | 3.24 | 0.254 | > 100 | 0.311 | > 100 | 0.377 | > 100 | 0.343 | 16.2 | 0.343 | > 100 | 0.356 | 15.9 | – | – | –
2 | COC1(C)C(=O)N2C1N(C(=O)OCc1ccccc1)CC2(C)C (configuration not stated) | – | – | – | – | > 100 | – | > 100 | – | – | – | > 100 | – | – | – | – | – | > 100 | > 100 | – | –
3 | Nc1cc2cccc[n+]2c2cccc(Cl)c12 | 17 | – | 32.1 | – | – | 17.1 | 72.8 | – | – | 30.9 | – | 4.1 | 65.2 | – | – | 22.1 | – | – | – | –
4 | O=C(CCc1nc(=S)[nH][nH]1)Nc1cccc(C(F)(F)F)c1 | – | – | – | – | > 100 | – | > 100 | – | – | – | > 100 | – | > 100 | – | > 100 | – | > 100 | > 100 | > 100 | –
5 | CC1=NN(C(=O)c2ccc(Cl)cc2)C(=O)/C1=C/c1ccc(Cl)cc1 | – | – | – | – | – | – | > 100 | – | – | – | > 100 | – | > 100 | – | > 100 | – | > 100 | > 100 | > 100 | –
6 | COCCOCOC(C)(C)[C@H](CCOC(C)=O)O[Si](c1ccccc1)(c1ccccc1)C(C)(C)C | – | – | – | – | > 100 | – | > 100 | – | – | – | > 100 | – | > 100 | – | > 100 | – | 58.9 | > 100 | > 100 | –
7 | OCc1ccc(N2CCCC2)cc1Cl | > 79.4 | > 100 | – | 31 | > 100 | 1.83 | 12.3 | > 84.7 | > 100 | 23.2 | > 100 | > 100 | > 100 | 0.148 | 0.498 | 27.5 | > 100 | – | 50.3 | 14.3
8 | Cc1ccc(NC(=O)CC2SC(N)=NC2=O)cc1C (configuration not stated) | – | – | – | – | > 100 | – | > 100 | – | – | – | > 100 | – | > 100 | – | > 100 | – | > 100 | – | > 100 | –
9 | CN1CCc2c1nc(-c1cccnc1)c1c2N(C)CC1 | – | – | – | – | > 100 | – | > 100 | – | – | – | > 100 | – | > 100 | – | > 100 | – | > 100 | > 100 | > 100 | –
10 | Cc1nc2c(sc(=S)n2-c2ccccc2)c2nc3ccccc3n12 | – | – | – | – | > 100 | – | > 100 | – | – | – | – | – | > 100 | – | > 100 | – | > 100 | > 100 | > 100 | –
11 | COc1ccc(Cc2nc3ccccc3s2)cc1OC | – | – | – | – | 60.7 | – | 37.7 | – | – | – | 61.8 | – | 32.2 | – | 37.6 | – | 31.9 | 37.1 | 31.3 | –
12 | NC(=O)C12CC3CC(CC(Br)(C3)C1)C2 | – | – | – | – | > 100 | – | > 100 | – | – | – | > 100 | – | > 100 | – | > 100 | – | > 100 | > 100 | > 100 | –
13 | COc1cc(/C=C\c2ccncc2)cc(OC)c1OC | – | – | – | – | > 100 | – | > 100 | – | – | – | > 100 | – | > 100 | – | > 100 | – | > 100 | > 100 | > 100 | –
14 | N/C(=N\c1nc2ccccc2s1)NC(=NC1CCCCC1)NC1CCCCC1 | – | – | 1.51 | 1.47 | 2.93 | 1.63 | 3.29 | 1.52 | 3.33 | – | – | 1.94 | 3.78 | 1.62 | 3.07 | 1.65 | 3.23 | 2.93 | 2.89 | 1.53
15 | COc1ccc(Oc2ccccc2NC(=O)CNC(=O)c2cccc3ccccc23)cc1 | 2.25 | > 25 | 1.37 | 0.59 | > 25 | 2.26 | > 25 | 1.06 | > 25 | 1.25 | > 25 | 0.577 | > 25 | 1.98 | > 25 | 1.14 | > 25 | > 25 | – | –
16 | Cc1cccc2c(Nc3ccc(NS(C)(=O)=O)cc3)c3ccc([N+](=O)[O-])cc3nc12 | 2.05 | 5.42 | – | 1.19 | 3.54 | 1.9 | 6.38 | 1.49 | 7.02 | 0.128 | 3.24 | 0.694 | 2.97 | 3.95 | 21.1 | 0.738 | 4.45 | – | 24 | 2.43
17 | CC(=O)NNc1nc(C)c(C(=O)/C=C/c2ccc(/C=C/C(=O)c3sc(NNC(C)=O)nc3C)cc2)s1 | – | – | – | – | > 100 | – | > 100 | – | – | – | > 100 | – | > 100 | – | > 100 | – | > 100 | > 100 | > 100 | –
18 | Nc1ccc(C(=O)N/C(=C\c2cccc([N+](=O)[O-])c2)c2nc3ccc(Cl)cc3[nH]2)cc1 | – | – | – | – | > 100 | – | > 100 | – | – | – | > 100 | – | > 100 | – | > 100 | – | > 100 | > 100 | > 100 | –
19 | N.N.N.N.N.O=S(=O)([O-])C(F)(F)F.O=S(=O)([O-])C(F)(F)F.[Os+8] | – | – | 43.6 | 17 | 56.4 | – | – | – | – | 24.2 | > 100 | 13.7 | 35 | 15.4 | 31.9 | 4.2 | 16.4 | > 100 | 30.6 | 6.61
20 | COC/N=C(/N)NC#N | – | – | – | – | 31 | – | > 100 | – | – | – | > 100 | – | > 100 | – | > 100 | – | > 100 | > 100 | > 100 | –
